One experiment has as its target T1, Human SGLT3 (Homo sapiens, UniProt Q9NY91).
T1 construct: expressed in transfected cells; host or cells: oocytes (from Nasco), injected with mRNA
T1 sequence (Q9NY91 1-659): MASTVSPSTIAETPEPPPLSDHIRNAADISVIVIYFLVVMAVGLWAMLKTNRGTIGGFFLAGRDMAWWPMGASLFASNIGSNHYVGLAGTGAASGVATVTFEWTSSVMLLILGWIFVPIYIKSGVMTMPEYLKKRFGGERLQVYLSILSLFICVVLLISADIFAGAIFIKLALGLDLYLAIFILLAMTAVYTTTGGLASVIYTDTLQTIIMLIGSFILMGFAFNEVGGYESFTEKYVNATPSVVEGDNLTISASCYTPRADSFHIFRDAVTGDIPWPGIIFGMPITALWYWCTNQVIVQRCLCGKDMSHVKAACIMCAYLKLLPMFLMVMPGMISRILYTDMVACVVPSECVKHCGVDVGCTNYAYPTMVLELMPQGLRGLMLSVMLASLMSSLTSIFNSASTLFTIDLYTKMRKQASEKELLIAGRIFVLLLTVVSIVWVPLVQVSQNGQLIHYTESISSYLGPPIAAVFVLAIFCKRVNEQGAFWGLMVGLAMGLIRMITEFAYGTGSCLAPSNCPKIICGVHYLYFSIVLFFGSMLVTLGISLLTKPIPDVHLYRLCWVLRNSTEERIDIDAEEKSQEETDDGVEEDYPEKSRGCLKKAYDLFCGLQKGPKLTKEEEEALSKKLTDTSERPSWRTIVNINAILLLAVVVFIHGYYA
Nature of the experiment: Two-electrode voltage clamp recording of oocytes expressing human SGLT3 (DNJ-induced currents). Type of experiment: cell-based. How it is done:
Oocytes were obtained from Nasco (Fort Atkinson, Wisconsin, USA). Stage V–VI oocytes were injected with 50 nl of either human SGLT3 mRNA (at 1 ng/nl) or distilled water (control) and incubated at 18°C in a calcium-free solution (92 mM NaCl, 2 mM KCl, 1 mM MgCl2, 5 mM HEPES, 0.05 mg/ml gentamicin at pH 7.5) for 4–6 days before recording. The extracellular recording solution contained 92 mM NaCl, 2 mM KCl, 1.8 mM CaCl2, 1 mM MgCl2, and 5 mM HEPES at pH 7.5. Injected oocytes were impaled with 2 microelectrodes filled with 3 M KCl (resistance of ∼0.5–3 MΩ) and voltage clamped to −120 mV, at which continuous recordings were made (filtered at 5 kHz and sampled at 625 Hz). To establish the baseline in the absence of agonist, oocytes were first perfused for 85 seconds with a control buffer (92 mM NaCl, 2 mM KCl, 1.8 mM CaCl2, 1 mM MgCl2, 5 mM HEPES at pH 7.5). […] Finally, phlorizin (3 mM) was applied in the presence of 50 µM DNJ for 160 seconds. All experiments were performed at 22°C. Currents in the presence of 50 µM DNJ were subtracted from leak currents (currents in control buffer alone) to obtain DNJ-induced currents (IDNJ). Effects of compounds were calculated as: % Inhibition = 100×(IDNJ−Icmpd)/IDNJ, where Icmpd is the DNJ-induced and leak-subtracted current in the presence of a compound or DMSO. Due to lack of effect at the highest dose tested, a dose-response relationship was not examined.
Background: Two-electrode voltage clamp holds a large cell at a set potential and records current.

A further experiment has as its system ZDF rats. Nature of the experiment: 4-week treatment of ZDF rats (glycemic control, OGTT). Type of experiment: in vivo, rat. As to conditions: 4 weeks; for OGTT Ratio of insulin AUC/glucose AUC / Insulin / HbA1c / OGTT Plasma insulin (AUC0–120 min) / Fed plasma glucose / OGTT Blood glucose (AUC0–120 min): ZDF rats; for OGTT Ratio of insulin AUC/glucose AUC: vehicle 0.003±0.000; for Insulin: vehicle 5.2±0.4; for HbA1c: vehicle 11.5±0.3; for OGTT Plasma insulin (AUC0–120 min): vehicle 221±13; for Fed plasma glucose: vehicle 598.2±18.0; for OGTT Blood glucose (AUC0–120 min): vehicle 70,704±1289. From the text: Four rodent models were used in these experiments: (1) male C57BL/6J mice fed with a high-fat diet (D-12492 with 60 kcal% fat, Research Diets, Inc, New Jersey, USA) (diet-induced obese, insulin resistantmice [DIO]); (2) male C57BL/ksj-db/db hyperglycemic mice; (3) male Zucker fatty (ZF) obese, insulin resistant rats; and (4) male ZDF obese, hyperglycemic rats. All animals were housed according to standard procedures following a protocol approved by the IACUC in Drug Discovery at Johnson & Johnson Pharmaceutical Research & Development, LLC.
BG levels were monitored at 0, 0.5, 1, 3, 6, and 24 hours after dosing. […] BG levels were monitored weekly, and HbA1c, plasma glucose, and insulin levels were determined at the end of the 4-week treatment. An oral glucose tolerance test (OGTT) ([…] of body weight, given by gavage) was conducted in ZDF rats after 4 weeks of treatment. Blood was sampled at 0, 30, 60, and 120 minutes after glucose challenge from the tail vein for measurement of BG levels using a glucometer (One Touch Ultra, LifeScan, Milpitas, California, USA) and plasma insulin using ELISA method (ALPCO, Salem, New Hampshire, USA).

The target of another experiment is Rat SGLT2 (Rattus norvegicus, UniProt P53792). Nature of the experiment: cell-based.
Sequence of Rat SGLT2 (P53792 whole entry): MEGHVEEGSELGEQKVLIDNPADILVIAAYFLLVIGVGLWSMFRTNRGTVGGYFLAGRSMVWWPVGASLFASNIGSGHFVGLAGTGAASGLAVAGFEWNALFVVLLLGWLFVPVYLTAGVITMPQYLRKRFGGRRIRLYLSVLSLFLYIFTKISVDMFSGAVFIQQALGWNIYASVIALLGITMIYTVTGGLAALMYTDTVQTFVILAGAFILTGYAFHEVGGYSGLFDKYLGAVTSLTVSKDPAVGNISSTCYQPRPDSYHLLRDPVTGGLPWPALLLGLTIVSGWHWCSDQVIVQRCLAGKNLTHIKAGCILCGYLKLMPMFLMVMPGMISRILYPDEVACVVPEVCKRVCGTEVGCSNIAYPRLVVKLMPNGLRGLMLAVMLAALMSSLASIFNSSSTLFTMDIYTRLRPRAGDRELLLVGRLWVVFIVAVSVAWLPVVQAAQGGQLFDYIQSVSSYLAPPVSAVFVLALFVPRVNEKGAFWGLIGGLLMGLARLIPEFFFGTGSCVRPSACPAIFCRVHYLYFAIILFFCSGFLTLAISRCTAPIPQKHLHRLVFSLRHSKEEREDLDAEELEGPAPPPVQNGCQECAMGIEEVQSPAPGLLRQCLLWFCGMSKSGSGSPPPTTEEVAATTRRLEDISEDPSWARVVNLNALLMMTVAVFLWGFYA

Marks after values point to notes of the source that are not given here.

Usually inhibition stands for how much of the control response was suppressed. In general, IC50 refers to the concentration at which inhibition is half-maximal.

At Human SGLT3 (10 µM, SGLT3-injected oocytes, 50 µM DNJ, n = 9, DMSO 15.6±3.1%, difference not statistically significant), `Cc1ccc([C@@H]2O[C@H](CO)[C@@H](O)[C@H](O)[C@H]2O)cc1Cc1ccc(-c2ccc(F)cc2)s1` [canagliflozin, Canagliflozin] displayed an inhibition at 10 µM of 23.4 ± 4.3%. Also, on Human SGLT3 (10 µM, sham (water)-injected oocytes, in the presence of 50 µM DNJ), the “effect on currents in sham-injected oocytes” value is on record as “did not affect currents”. The “effect on DNJ-induced currents” value on Human SGLT3 (oocytes expressing human SGLT3, column head IC50, nM) is “No inhibitory effect”. In addition, in the experiment on ZDF rats (3 mg/kg), the “OGTT Ratio of insulin AUC/glucose AUC” value is given as 0.013±0.002 ^a (ng/ml•min)/mg/dl•min), the Insulin is recorded as 7.9±0.1 ^a ng/ml, the HbA1c is recorded as 7.1±0.3 ^a % and the “OGTT Plasma insulin (AUC0–120 min)” value is 342±27 ^a ng/ml•min. Further, in the experiment on ZDF rats (3 mg/kg), the Fed plasma glucose is listed as 248.0±13.5 ^a mg/dl and the “OGTT Blood glucose (AUC0–120 min)” value is recorded as 27,883±1806 ^a mg/dl•min. In addition, in the experiment with ZDF rats (10 mg/kg), the “OGTT Ratio of insulin AUC/glucose AUC” value is 0.017±0.002 ^a (ng/ml•min)/mg/dl•min), the Insulin is reported as 7.9±0.1 ^a ng/ml, the HbA1c is listed as 5.6±0.3 ^a % and the “OGTT Plasma insulin (AUC0–120 min)” value is on record as 403±33 ^a ng/ml•min. Further, in the experiment with ZDF rats (10 mg/kg), the Fed plasma glucose is recorded as 182.0±7.1 ^a mg/dl and the “OGTT Blood glucose (AUC0–120 min)” value was 23,989±1881 ^a mg/dl•min. In the experiment on ZDF rats (30 mg/kg), the “OGTT Ratio of insulin AUC/glucose AUC” value is on record as 0.018±0.002 ^a (ng/ml•min)/mg/dl•min), the Insulin was 7.8±0.1 ^a ng/ml, the HbA1c is on record as 5.5±0.3 ^a % and the “OGTT Plasma insulin (AUC0–120 min)” value is 288 ± 34 ng·min/mL. Besides, in the experiment on ZDF rats (30 mg/kg), the Fed plasma glucose is listed as 199.9±14.7 ^a mg/dl and the “OGTT Blood glucose (AUC0–120 min)” value is listed as 16,549±822 ^a mg/dl•min. For the same molecule, the “increase in the insulin/glucose ratio following an OGTT, relative to vehicle-treated animals” value in the experiment with ZDF rats (ZDF rats, 3, 10 or 30 mg/kg) is 4-to-6 fold. Further, the IC50 against Rat SGLT2 stood at 3.7 nM.

These data come from PMC3280264 (PLoS ONE, 2012).
